Measured values published in patent publication US20210205638A1, “PARATHYROID HORMONE AND REGENERATION OF DEGENERATIVE DISCS DISEASE” (THE JOHNS HOPKINS UNIVERSITY, priority 2017, published 2021).

Columns and labels:
[1] = system: integrin β6; test: Western blot of integrin β6 in NP cells at time points after PTH; format: cell-based, mouse; settings: PTH1-34 100 nM, time dependent manner
Method: (§1) Western blot analyses were conducted on the protein lysates from in vitro cultured NP cells or NP tissues from mice at specific time points after PTH (1-34) treatment and human at different ages with lumbar disc degeneration. The protein extract was centrifuged, the concentration of supernatant evaluated by DC protein assay (Bio-Rad Laboratories), and then separated by SDS-PAGE and blotted on a polyvinylidene fluoride membrane (Bio-Rad Laboratories). Following incubation in specific antibodies, we detected proteins using an enhanced chemiluminescence kit (Amersham Biosciences). We used specific antibodies recognizing rabbit CTGF (CCN2) (Abcam, 1:1000), Aggrecan (ACAN) (Abcan, 1:1000), p-Smad2 (Cell Signaling Technology Inc., 1:1000), Smad2 (Cell Signaling Technology Inc., 1:1000), GAPDH (Cell Signaling Technology Inc., 1:1000), CREB (Abcam, 1:2500), pCREB (Abcam, 1:2500), PTH1R PRB-635P (Covance, 1:100), PTH1R PRB-640P (Covance, 1:500) and goat integrin β6 (Santa Cruz, 1:500) to examine the protein concentrations in the lysates. Co-immunoprecipitation analyses were conducted on the nuclear and cytoplasmic protein extraction using NE-PER Nuclear and Cytoplasmic Extraction Kit (Pierce Thermo Scientific, 78833) from in vitro cultured NP cells treated with PTH (1-34) or vehicle.

[2] = system: NP tissue; test: iPTH in PTH1R KO mice: Western blot of NP tissue; format: in vivo, mouse
Method: The 11 month-old PTH1R^+/+ and PTH1R^−/− male mice were randomized into four groups: PTH1R^+/++PTH (1-34), PTH1R^+/++Vehicle, PTH1R^−/−+PTH (1-34) and PTH1R^−/−+Vehicle groups (n=8 per group). The 11 month-olds IFT88^+/+ and IFT88^−/− male mice were randomized into four groups: IFT88^+/++PTH (1-34), IFT88^+/++Vehicle, IFT88^−/−+PTH (1-34) and IFT88^−/−+Vehicle groups (n=8 per group). Mice were subcutaneously injected with either PTH (1-34) or vehicle (1 mM acetic acid in phosphate buffered saline (PBS) with equivalent volume of PTH) daily, 5 days per week, and all mice were sacrificed 4 weeks after treatment with PTH (1-34)/vehicle.
as §1

[3] = system: IFT88-/- mice; test: iPTH in IFT88-/- and wild-type mice: PPCT IVD volume and IVD histological score; format: in vivo, mouse
Text: Mice carrying the PTH1R gene flanked by loxP sites (PTH1R^flox/flox) were mated with Noto^Cre mice to generate mice bearing Noto^Cre and a floxed PTH1R allele in their germline. These mice were backcrossed to homozygous floxed mice (Noto^Cre/+/PTH1R^flox/+::PTH1R^flox/flox) to generate mice with inactivation of both alleles in notochord derived cells (genotype […]). Homozygous disruption of the Noto locus is perinatally lethal; viable offspring have genotypes of either Noto^Cre/+:: PTH1R^flox/flox (mice with PTH1R conditional deletion in Noto lineage cells are referred to as “[…]” in the text) or Noto^+/+:: PTH1R^flox/flox (wild-type littermates hereinafter referred to as “PTH1R^+/+” in the text). The genotype of transgenic mice was determined by PCR analyses of genomic DNA isolated from mouse tails. The floxed PTH1R allele was identified with primers lox1F (5-[…] ID NO: 1) and lox1R (5-[…] ID NO: 2). The genotyping for the Cre transgene was performed by PCR with the primers […] ID NO: 3) […] ID NO: 4). We generated Noto^Cre/+:: ROSA26-lacZ^flox/flox by crossing Noto mice with mice homozygous with a loxP-flanked DNA stop sequence, preventing expression of the downstream lacZ gene. IFT88^flox/flox mouse model has been generated as descripted. A NP tissue-specific primary cilia knock-out (KO) mouse line was generated by crossing NotoCre mice with IFT88^flox/flox mice, in which the primary cilia were deleted from the NP tissue. The loxP IFT88 allele was identified with the primers lox2F ([NT] ID NO: 5) and lox2R ([NT] ID NO: 6). The 11 month-old PTH1R^+/+ and PTH1R^-/- male mice were randomized into four groups: PTH1R^+/++PTH (1-34), PTH1R^+/++Vehicle, PTH1R^-/-+PTH (1-34) and PTH1R^-/-+Vehicle groups (n=8 per group). […] Quantitative histomorphometric analysis was conducted in a blinded fashion with Image-Pro Plus Software version 6.0 (Media Cybernetics Inc). […] Five randomly selected sections per mice in each group at L3-L4 level were chosen for quantitative histomorphometric analysis. […] The percentage area of CCN2 and ACAN positive staining was calculated by measuring the positive area to the whole area of the L3-L4 in each group. […] The images were reconstructed and analyzed using the GPU-CT-Reconstruction software (applied by the BL13W1 experimental station) and the VG Studio Max 3D software (version 2.1, Volume Graphics GmbH, Germany) respectively. […] The 3D quantitative analysis of IVDs was performed with the commercially available Image Pro Analyzer 3D software (Version 7.0, Media Cybernetics, Inc., USA). The 3D structural parameters analyzed for the mean height and volume and thickness distribution of IVDs. […]

Compound: CC[C@H](C)[C@H](NC(=O)[C@H](CCC(=O)O)NC(=O)[C@H](CO)NC(=O)[C@@H](NC(=O)[C@@H](N)CO)C(C)C)C(=O)N[C@@H](CCC(N)=O)C(=O)N[C@@H](CC(C)C)C(=O)N[C@@H](CCSC)C(=O)N[C@@H](Cc1cnc[nH]1)C(=O)N[C@@H](CC(N)=O)C(=O)N[C@@H](CC(C)C)C(=O)NCC(=O)N[C@@H](CCCCN)C(=O)N[C@@H](Cc1cnc[nH]1)C(=O)N[C@@H](CC(C)C)C(=O)N[C@@H](CC(N)=O)C(=O)N[C@@H](CO)C(=O)N[C@@H](CCSC)C(=O)N[C@@H](CCC(=O)O)C(=O)N[C@@H](CCCN=C(N)N)C(=O)N[C@H](C(=O)N[C@@H](CCC(=O)O)C(=O)N[C@@H](Cc1c[nH]c2ccccc12)C(=O)N[C@@H](CC(C)C)C(=O)N[C@@H](CCCN=C(N)N)C(=O)N[C@@H](CCCCN)C(=O)N[C@@H](CCCCN)C(=O)N[C@@H](CC(C)C)C(=O)N[C@@H](CCC(N)=O)C(=O)N[C@@H](CC(=O)O)C(=O)N[C@H](C(=O)N[C@@H](Cc1cnc[nH]1)C(=O)N[C@@H](CC(N)=O)C(=O)N[C@@H](Cc1ccccc1)C(=O)O)C(C)C)C(C)C [PTH (1-34), teriparatide]
- protein level of β6 integrin [1]: significantly stimulated
- PTH induced increase in level of ACAN [2]: diminished
- PTH induced increase in level of CCN2 [2]: diminished
- PTH induced increase in level of pSmad2 [2]: diminished
- improvement of IVD scores by iPTH ([3]; IFT88-/- mice): impaired
- iPTH-increased IVD volume ([3]; IFT88-/- mice relative to wild-type mice): blunted
- IVD scores ([3]; wild-type mice): improvement
- IVD volume ([3]; wild-type mice): increased
